“Also recorded” adds a separate entry of the source. Read-outs that look alike come from different tables or passages of the source.
Tests used:
[1] = healthy male subjects, single oral dose of 60 mg 14C‐DFZ; cited from earlier work
human OCT1 = human OCT1 (Homo sapiens, UniProt O15245); assay: Transporter inhibition, uptake assay; format: in vitro ADME
human MATE2‐K = human MATE2‐K (Homo sapiens, UniProt Q86VL8); assay: Transporter inhibition, uptake assay; format: in vitro ADME
CYP2D6 = CYP2D6 (Homo sapiens, UniProt P10635); assay: CYP inhibition in pooled human liver microsomes, dextromethorphan probe; format: in vitro ADME; conditions: read-out: IC50, No preincubation; CYP2D6, pooled HLMs, n = 3
CYP2C19 = CYP2C19 (Homo sapiens, UniProt P33261); assay: CYP inhibition in pooled human liver microsomes, S-mephenytoin probe; format: in vitro ADME
CYP2B6 = assay: in vitro; format: in vitro ADME, human; conditions: 48 h
CYP3A4 = conditions: 48 h
human OAT1 = target: T1, human OAT1 (Homo sapiens, UniProt Q4U2R8); assay: Transporter inhibition, uptake assay; format: in vitro ADME
T1 sequence (Q4U2R8 1-563): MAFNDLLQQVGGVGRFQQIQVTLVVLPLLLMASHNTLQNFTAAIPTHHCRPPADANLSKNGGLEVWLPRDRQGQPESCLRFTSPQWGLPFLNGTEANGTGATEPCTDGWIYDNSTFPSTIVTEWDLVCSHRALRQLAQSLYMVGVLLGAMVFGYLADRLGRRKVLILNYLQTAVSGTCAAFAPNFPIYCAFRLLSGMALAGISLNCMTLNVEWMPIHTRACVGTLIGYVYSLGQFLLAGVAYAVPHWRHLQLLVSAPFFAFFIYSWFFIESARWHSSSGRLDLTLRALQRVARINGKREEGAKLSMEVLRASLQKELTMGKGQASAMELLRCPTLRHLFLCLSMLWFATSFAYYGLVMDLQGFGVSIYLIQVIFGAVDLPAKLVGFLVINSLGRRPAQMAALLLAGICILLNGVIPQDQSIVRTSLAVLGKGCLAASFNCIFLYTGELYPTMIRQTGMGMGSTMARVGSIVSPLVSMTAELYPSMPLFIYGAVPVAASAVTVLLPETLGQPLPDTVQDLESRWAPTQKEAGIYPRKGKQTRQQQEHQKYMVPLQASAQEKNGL

human OCT1, sequence (O15245 whole entry): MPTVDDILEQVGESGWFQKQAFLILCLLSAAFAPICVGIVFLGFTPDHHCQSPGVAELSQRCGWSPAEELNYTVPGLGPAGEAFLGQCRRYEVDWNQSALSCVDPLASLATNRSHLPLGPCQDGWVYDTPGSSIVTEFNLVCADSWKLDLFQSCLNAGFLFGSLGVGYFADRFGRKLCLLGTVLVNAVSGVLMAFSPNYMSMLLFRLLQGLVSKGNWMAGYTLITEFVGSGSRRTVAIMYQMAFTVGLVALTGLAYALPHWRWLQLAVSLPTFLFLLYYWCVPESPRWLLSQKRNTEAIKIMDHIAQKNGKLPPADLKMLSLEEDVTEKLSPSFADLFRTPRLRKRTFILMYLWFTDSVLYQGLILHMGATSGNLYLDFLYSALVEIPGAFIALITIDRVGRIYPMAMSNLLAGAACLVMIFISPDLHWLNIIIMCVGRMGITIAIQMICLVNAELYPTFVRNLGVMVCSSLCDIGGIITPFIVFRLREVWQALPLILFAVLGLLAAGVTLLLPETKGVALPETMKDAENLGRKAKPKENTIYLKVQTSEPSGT
human MATE2‐K, sequence (Q86VL8 1-566 isoform Q86VL8-3): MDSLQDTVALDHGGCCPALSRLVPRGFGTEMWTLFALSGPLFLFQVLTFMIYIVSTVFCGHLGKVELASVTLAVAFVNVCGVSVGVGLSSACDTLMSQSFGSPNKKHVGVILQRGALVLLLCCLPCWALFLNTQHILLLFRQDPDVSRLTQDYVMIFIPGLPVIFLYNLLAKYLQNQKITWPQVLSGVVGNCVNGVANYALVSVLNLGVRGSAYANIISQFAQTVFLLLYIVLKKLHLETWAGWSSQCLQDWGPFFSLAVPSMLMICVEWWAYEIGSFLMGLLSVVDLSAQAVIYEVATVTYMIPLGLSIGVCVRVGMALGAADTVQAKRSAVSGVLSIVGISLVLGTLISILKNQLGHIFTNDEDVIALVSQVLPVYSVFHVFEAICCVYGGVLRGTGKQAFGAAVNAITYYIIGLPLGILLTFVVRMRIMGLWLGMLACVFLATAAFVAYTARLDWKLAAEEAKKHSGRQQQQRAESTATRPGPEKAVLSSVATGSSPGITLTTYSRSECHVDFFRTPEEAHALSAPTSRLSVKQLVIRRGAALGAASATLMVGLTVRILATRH
CYP2C19, sequence (P33261 whole entry): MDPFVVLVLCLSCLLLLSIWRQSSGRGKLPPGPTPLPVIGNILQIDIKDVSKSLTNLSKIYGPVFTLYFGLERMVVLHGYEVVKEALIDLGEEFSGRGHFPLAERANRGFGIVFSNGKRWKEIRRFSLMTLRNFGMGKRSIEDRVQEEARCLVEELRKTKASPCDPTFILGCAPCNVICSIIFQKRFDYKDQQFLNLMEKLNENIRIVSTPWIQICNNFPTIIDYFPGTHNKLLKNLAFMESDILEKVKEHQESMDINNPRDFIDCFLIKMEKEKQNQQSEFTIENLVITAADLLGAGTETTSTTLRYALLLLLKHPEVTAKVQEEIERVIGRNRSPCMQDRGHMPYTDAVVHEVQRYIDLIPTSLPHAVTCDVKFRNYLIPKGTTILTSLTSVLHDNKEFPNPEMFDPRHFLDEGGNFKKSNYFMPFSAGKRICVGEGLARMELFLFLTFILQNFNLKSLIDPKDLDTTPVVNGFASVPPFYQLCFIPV
CYP2D6, sequence (P10635 whole entry): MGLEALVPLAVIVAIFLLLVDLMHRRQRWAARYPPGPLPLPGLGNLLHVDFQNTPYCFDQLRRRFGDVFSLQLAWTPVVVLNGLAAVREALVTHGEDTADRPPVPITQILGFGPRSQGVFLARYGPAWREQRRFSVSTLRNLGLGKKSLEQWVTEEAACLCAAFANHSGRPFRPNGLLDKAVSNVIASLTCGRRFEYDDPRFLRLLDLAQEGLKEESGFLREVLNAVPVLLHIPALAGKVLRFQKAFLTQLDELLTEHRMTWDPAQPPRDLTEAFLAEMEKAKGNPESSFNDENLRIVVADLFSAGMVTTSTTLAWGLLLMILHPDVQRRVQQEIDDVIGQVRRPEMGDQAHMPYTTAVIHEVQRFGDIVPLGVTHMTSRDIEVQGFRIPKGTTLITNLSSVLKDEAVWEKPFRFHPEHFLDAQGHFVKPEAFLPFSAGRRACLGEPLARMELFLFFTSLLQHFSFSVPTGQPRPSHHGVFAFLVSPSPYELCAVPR

## CC1=N[C@]2(C(=O)CO)[C@@H](C[C@H]3[C@@H]4C[C@@H](O)C5=CC(=O)C=C[C@]5(C)[C@H]4[C@@H](O)C[C@@]32C)O1 [6β‐OH‐21‐desDFZ, 6β‐Hydroxy‐21‐desacetyl deflazacort]
[1]
  share of 0–24 h plasma levels of total radioactivity: 25%
Human OCT1; OCT1, up to 50 µM
  inhibitory interaction with transporter: no inhibitory interaction
Human OCT1; OCT1 UPT, n = 3
  Maximum inhibition at 50 µM: 23 % of control
Human MATE2‐K; MATE2‐K UPT, n = 3
  Maximum inhibition at 50 µM: 26 % of control
Human MATE2‐K; MATE2‐K, up to 50 µM
  inhibitory interaction with transporter: no inhibitory interaction
CYP2D6
  IC50: > 50 µM
CYP2C19; CYP2C19, Cmax 0.34 µM, assumed 100% free
  estimated plasma Cmax/IC50 ratio: 0.007
CYP2C19; read-out: IC50, No preincubation, CYP2C19, pooled HLMs, n = 3
  IC50: ~50 µM
CYP2B6; donor one, 0.002 µM
  CYP2B6 enzyme activity fold induction: 0.921 fold
  CYP2B6 mRNA fold induction: 0.680 fold
CYP2B6; donor one, 0.01 µM
  CYP2B6 enzyme activity fold induction: 0.826 fold
  CYP2B6 mRNA fold induction: 0.750 fold
CYP2B6; donor one, 0.05 µM
  CYP2B6 enzyme activity fold induction: 0.767 fold
  CYP2B6 mRNA fold induction: 0.736 fold
CYP2B6; donor one, 0.25 µM
  CYP2B6 enzyme activity fold induction: 0.752 fold
  CYP2B6 mRNA fold induction: 0.794 fold
CYP2B6; donor one, 5 µM
  CYP2B6 enzyme activity fold induction: 0.832 fold
  CYP2B6 mRNA fold induction: 0.616 fold
CYP2B6; donor one, 10 µM
  CYP2B6 enzyme activity fold induction: 0.814 fold
  CYP2B6 mRNA fold induction: 0.663 fold
CYP2B6; donor one, 20 µM
  CYP2B6 enzyme activity fold induction: 0.896 fold
  CYP2B6 mRNA fold induction: 0.756 fold
CYP2B6; donor three, 0.002 µM
  CYP2B6 enzyme activity fold induction: 0.836 fold
  CYP2B6 mRNA fold induction: 0.704 fold
CYP2B6; donor three, 0.01 µM
  CYP2B6 enzyme activity fold induction: 0.829 fold
  CYP2B6 mRNA fold induction: 0.745 fold
CYP2B6; donor three, 0.05 µM
  CYP2B6 enzyme activity fold induction: 0.829 fold
  CYP2B6 mRNA fold induction: 0.721 fold
CYP2B6; donor three, 0.25 µM
  CYP2B6 enzyme activity fold induction: 0.810 fold
  CYP2B6 mRNA fold induction: 0.726 fold
CYP2B6; donor three, 5 µM
  CYP2B6 enzyme activity fold induction: 1.01 fold
  CYP2B6 mRNA fold induction: 0.791 fold
CYP2B6; donor three, 10 µM
  CYP2B6 enzyme activity fold induction: 1.13 fold
  CYP2B6 mRNA fold induction: 0.806 fold
CYP2B6; donor three, 20 µM
  CYP2B6 enzyme activity fold induction: 1.08 fold
  CYP2B6 mRNA fold induction: 0.840 fold
CYP2B6; donor two, 0.002 µM
  CYP2B6 enzyme activity fold induction: 0.960 fold
  CYP2B6 mRNA fold induction: 0.643 fold
CYP2B6; donor two, 0.01 µM
  CYP2B6 enzyme activity fold induction: 0.895 fold
  CYP2B6 mRNA fold induction: 0.522 fold
CYP2B6; donor two, 0.05 µM
  CYP2B6 enzyme activity fold induction: 0.944 fold
  CYP2B6 mRNA fold induction: 0.571 fold
CYP2B6; donor two, 0.25 µM
  CYP2B6 enzyme activity fold induction: 0.963 fold
  CYP2B6 mRNA fold induction: 0.622 fold
CYP2B6; donor two, 5 µM
  CYP2B6 enzyme activity fold induction: 1.22 fold
  CYP2B6 mRNA fold induction: 0.515 fold
CYP2B6; donor two, 10 µM
  CYP2B6 enzyme activity fold induction: 1.20 fold
  CYP2B6 mRNA fold induction: 0.596 fold
CYP2B6; donor two, 20 µM
  CYP2B6 enzyme activity fold induction: 1.40 fold
  CYP2B6 mRNA fold induction: 0.809 fold
CYP2B6; human hepatocytes, three donors
  induction of CYP2B6 (mRNA or enzyme activity), conclusion: no meaningful concentration‐dependent induction; also recorded: did not appear to be an inducer; also recorded: did not induce
CYP3A4; donor one, 0.002 µM
  CYP3A4 enzyme activity fold induction: 0.600 fold
  CYP3A4 mRNA fold induction: 0.450 fold
CYP3A4; donor one, 0.01 µM
  CYP3A4 enzyme activity fold induction: 0.595 fold
  CYP3A4 mRNA fold induction: 0.583 fold
CYP3A4; donor one, 0.05 µM
  CYP3A4 enzyme activity fold induction: 0.604 fold
  CYP3A4 mRNA fold induction: 0.507 fold
CYP3A4; donor one, 0.25 µM
  CYP3A4 enzyme activity fold induction: 0.685 fold
  CYP3A4 mRNA fold induction: 0.681 fold
CYP3A4; donor one, 5 µM
  CYP3A4 enzyme activity fold induction: 0.451 fold
  CYP3A4 mRNA fold induction: 0.647 fold
CYP3A4; donor one, 10 µM
  CYP3A4 enzyme activity fold induction: 0.446 fold
  CYP3A4 mRNA fold induction: 0.890 fold
CYP3A4; donor one, 20 µM
  CYP3A4 enzyme activity fold induction: 0.561 fold
  CYP3A4 mRNA fold induction: 1.74 fold
CYP3A4; donor three, 0.002 µM
  CYP3A4 enzyme activity fold induction: 0.626 fold
  CYP3A4 mRNA fold induction: 0.562 fold
CYP3A4; donor three, 0.01 µM
  CYP3A4 enzyme activity fold induction: 0.543 fold
  CYP3A4 mRNA fold induction: 0.484 fold
CYP3A4; donor three, 0.05 µM
  CYP3A4 enzyme activity fold induction: 0.545 fold
  CYP3A4 mRNA fold induction: 0.450 fold
CYP3A4; donor three, 0.25 µM
  CYP3A4 enzyme activity fold induction: 0.668 fold
  CYP3A4 mRNA fold induction: 0.684 fold
CYP3A4; donor three, 5 µM
  CYP3A4 enzyme activity fold induction: 0.542 fold
  CYP3A4 mRNA fold induction: 0.615 fold
CYP3A4; donor three, 10 µM
  CYP3A4 enzyme activity fold induction: 0.563 fold
  CYP3A4 mRNA fold induction: 0.764 fold
CYP3A4; donor three, 20 µM
  CYP3A4 enzyme activity fold induction: 0.637 fold
  CYP3A4 mRNA fold induction: 1.33 fold
CYP3A4; donor two, 0.002 µM
  CYP3A4 enzyme activity fold induction: 0.601 fold
  CYP3A4 mRNA fold induction: 0.739 fold
CYP3A4; donor two, 0.01 µM
  CYP3A4 enzyme activity fold induction: 0.635 fold
  CYP3A4 mRNA fold induction: 0.714 fold
CYP3A4; donor two, 0.05 µM
  CYP3A4 enzyme activity fold induction: 0.657 fold
  CYP3A4 mRNA fold induction: 0.739 fold
CYP3A4; donor two, 0.25 µM
  CYP3A4 enzyme activity fold induction: 0.769 fold
  CYP3A4 mRNA fold induction: 0.817 fold
CYP3A4; donor two, 5 µM
  CYP3A4 enzyme activity fold induction: 0.690 fold
  CYP3A4 mRNA fold induction: 0.856 fold
CYP3A4; donor two, 10 µM
  CYP3A4 enzyme activity fold induction: 0.637 fold
  CYP3A4 mRNA fold induction: 1.02 fold
CYP3A4; donor two, 20 µM
  CYP3A4 enzyme activity fold induction: 0.856 fold
  CYP3A4 mRNA fold induction: 1.95 fold
Human OAT1; OAT1, up to 50 µM
  inhibitory interaction with transporter: did not show interaction; also recorded: no inhibitory interaction
Human OAT1; OAT1 UPT, n = 3
  Maximum inhibition at 50 µM: <20 % of control

From article PMC7982320 (Pharmacology Research & Perspectives, 2021)
